Entries after “also recorded” stand apart in the source; their conditions may differ.
Experiments:
DENV [1] = test: Exogenous COX-2 (pCMV-COX-2-Myc) overexpression rescue of DENV replication in Huh-7 cells; format: cell-based, dengue virus; conditions: 1 μM; pCMV-COX-2-Myc transfected Huh-7 cells
Description: (§1) In a previous study, Lin et al. reported that induction of COX-2 could suppress DENV replication. To determine whether compound 19a had impact on COX-2 protein and mRNA expression in Huh-7 cells, we treated Huh-7 cells with 0.5 to 5 μM of 19a. […] To characterize whether the 19a-mediated downregulation of COX-2 expression and its catalytic activity was involved in the suppression of DENV replication, we overexpressed exogenous COX-2 to evaluate the inhibitory activity of 19a on DENV replication. […] Consistently, the exogenous expression of COX-2 attenuated the inhibitory effect of 19a on the non-structural 2B (NS2B) protein levels, as analyzed by Western blotting.
Huh-7-DV-Fluc cells were seeded in 24-well plates at a density of 2 × 10^4 cells per well, and treated with the 3-arylquinoxaline compounds at two concentrations (1 and 10 μM) or 0.1% DMSO as control. […] After three days, protein and RNA levels were analyzed by Western blotting with a specific antibody as previously described respectively.
(§2) Figure 4 Inhibitory effect of 19a on DENV-induced cyclooxygenase-2 (COX-2) expression in Huh-7 cells. […] The results are expressed as the means ± standard deviations (SD) of triplicate experiments.

DENV [2] = test: DENV protein synthesis by Western blotting in Huh-7 cells; format: cell-based, dengue virus; conditions: 0.5, 1, 2.5 and 5 μM, three days
Description: To further confirm the anti-DENV effect of compound 19a, we treated compound 19a at indicated concentrations in Huh-7 cells for three days.
Huh-7 cells were seeded in 24-well plates at a density of 5 × 10^4 cells per well overnight and treated with indicated reagent at proper concentrations for three days. Cells were washed with cold phosphate-buffered saline (PBS) and lysed by radioimmunoprecipitation assay (RIPA) lysis buffer (50 mM Tris-HCl, pH 7.5, 150 mM NaCl, 1% Nonidet P-40, 2 mM ethylenediaminetetraacetic acid (EDTA), 1 mM ethylene glycol bis(2-aminoethyl)tetraacetic acid (EGTA), 1 mM NaVO3, 10 mM NaF, 1 mM dithiothreitol (DTT), 1 mM phenylmethylsulfonyl fluoride (PMSF), 25 μg/mL aprotinin, and 25 μg/mL leupeptin) and stored at −20 °C. The protein concentration was determined by the Bradford method. Then, 10-μg protein samples were separated by 10% SDS-PAGE and transferred onto a polyvinylidene fluoride (PVDF) membrane. The membrane was blocked with 5% non-fat dried milk and incubated with specific antibodies against GAPDH (1:10000, Genetex, Irvine, CA, USA) and COX-2 (1:1000; Cayman Chemical, Ann Arbor, ML, USA). […] The blotting signal was developed using an enhanced chemiluminescence (ECL) detection kit (PerkinElmer, Waltham, MA, USA) and was counted by the software Quantity One (Bio-Rad, Hercules, CA, USA). […]

COX-2 expression = test: COX-2 protein and mRNA expression in Huh-7 cells (Western blotting, RT-qPCR); format: cell-based, Human; conditions: 0.5 to 5 μM, vs DMSO
Description: as §1
Huh-7 cells were seeded in 24-well plates at a density of 5 × 10^4 cells per well overnight and treated with indicated reagent at proper concentrations for three days. […] The protein concentration was determined by the Bradford method. […] The blotting signal was developed using an enhanced chemiluminescence (ECL) detection kit (PerkinElmer, Waltham, MA, USA) and was counted by the software Quantity One (Bio-Rad, Hercules, CA, USA). […]
as §2

Huh-7 cells = test: Cytotoxicity assay (XTT method); format: cell-based, Human
Description: (§3) For cytotoxicity tests, run in parallel with antiviral assays, plates at an initial density of 5 × 10^3 cells/well were treated with or without serial dilutions of test compounds. Cell viability was determined after 72 h at 37 °C in a humidified CO2 (5%) atmosphere by the (2,3-bis[2-methyloxy-4-nitro-5-sulfophenyl]-2H-tetrazolium-5-carboxanilide) (XTT) method.

[3] = Cytotoxicity assay (XTT method); format: cell-based, Human; conditions: human, mean ± SD
Description: as §3

COc1ccc(-c2nc3ccccc3nc2C(O)c2ccccc2)cc1 (stereo not shown) [Compound 19a, [3-(4-Methoxyphenyl)quinoxalin-2-yl](phenyl)methanol]
viral RNA level reduced by compound upon increasing exogenous COX-2-Myc expression (DENV [1]): gradually rescued | melting point: 160.4 to 161.9 °C | DENV protein synthesis (Western blotting) (DENV [2]): dose-dependently reduced | COX-2 mRNA level (COX-2 expression): could inhibit | COX-2 protein level (COX-2 expression): could inhibit | Huh-7 Cell % viability at 200 μM (Huh-7 cells; 200 μM, 72 h, XTT, mean ± SD): 85.26 ± 5.63% | cytotoxicity in words (Huh-7 cells; Huh-7 cells): non-cytotoxic; also recorded: no significant cell cytotoxicity | viability at 72 h, 20 µM ([3]; Huh-7 cells, 20 μM, 72 h, XTT, read-out: Huh-7 Cell % viability at 20 μM): 99.7 ± 1.65% | viability at 72 h, 200 µM ([3]; Huh-7 cells, 200 μM, 72 h, XTT, read-out: Huh-7 Cell % viability at 200 μM): 85% | CC50 at 72 h ([3]; uninfected Huh-7 cells, read-out: CC50 (concentration causing a 50% growth inhibition of uninfected Huh-7 cells)): > 200 µM

Source: paper PMC6801405, “Discovery of 3-Arylquinoxaline Derivatives as Potential Anti-Dengue Virus Agents” (International Journal of Molecular Sciences, 2019)
